From US20250304576A1 (Cancer Research Technology Limited, priority 2022, published 2025) come the findings set out here.

In one test the target is T1, Recombinant IKKα (Homo sapiens, UniProt O15111).
T1 construct: purchased Millipore, Dundee, UK
T1 sequence (O15111 1-745): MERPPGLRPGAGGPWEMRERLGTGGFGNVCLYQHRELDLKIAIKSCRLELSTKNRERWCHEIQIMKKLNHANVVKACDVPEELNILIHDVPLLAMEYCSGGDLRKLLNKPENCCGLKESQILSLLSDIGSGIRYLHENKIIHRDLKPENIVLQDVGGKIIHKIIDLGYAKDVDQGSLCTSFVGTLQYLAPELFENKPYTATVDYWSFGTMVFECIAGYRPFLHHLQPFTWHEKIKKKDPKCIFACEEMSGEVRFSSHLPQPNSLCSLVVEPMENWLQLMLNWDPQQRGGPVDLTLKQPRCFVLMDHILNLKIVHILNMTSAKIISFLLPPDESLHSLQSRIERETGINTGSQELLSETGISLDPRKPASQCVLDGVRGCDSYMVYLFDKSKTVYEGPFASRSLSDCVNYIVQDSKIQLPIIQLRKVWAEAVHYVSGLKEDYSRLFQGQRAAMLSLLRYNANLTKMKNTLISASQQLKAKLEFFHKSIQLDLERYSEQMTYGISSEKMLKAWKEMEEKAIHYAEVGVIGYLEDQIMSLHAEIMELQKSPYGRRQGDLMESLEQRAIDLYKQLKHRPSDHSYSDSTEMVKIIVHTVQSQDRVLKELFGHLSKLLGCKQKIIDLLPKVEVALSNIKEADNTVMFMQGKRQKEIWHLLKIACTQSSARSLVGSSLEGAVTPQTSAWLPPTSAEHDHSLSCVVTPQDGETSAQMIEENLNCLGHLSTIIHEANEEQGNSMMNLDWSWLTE
Briefly: DELFIA IKKα kinase assay (apparent Ki, Cheng-Prusoff). The test is classed as biochemical. The note with it: DELFIA assay (first line of an example). The method in brief:
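DELFIA time-resolved fluorescence (ex 340/em 615 nm) quantified phosphorylation of a biotinylated IκB-α Ser32 peptide (0.375 μM) by 37 nM recombinant IKKα or IKKβ. Reactions used 40 μM ATP, Tris pH 7.5 buffer with MgCl2, DTT and BSA, 60 min at 30° C. Cheng-Prusoff equation gave apparent Ki.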

For a further test, the target named is T2, CHUK (IKK alpha) (Homo sapiens, UniProt O15111).
T2 construct: purchased Life Technologies (assay performed by the vendor)
T2 sequence (O15111 1-745): T1 sequence (O15111 1-745)
Briefly: Adapta IKKα assay (TR-FRET ADP formation, Life Technologies). It counts as biochemical. The note with it: Adapta assay (second line of an example). As to the method: IKKα and IKKβ inhibitory activity was determined using three different assays: a dissociation enhanced ligand fluorescent immunoassay (DELFIA) based on the protocol of HTScan™ IKKβ Kinase Assay (Cell Signaling Technology, USA); an Adapta IKKα assay (performed by Life Technologies); a Z′-LYTE™ IKKβ assay (performed by Life Technologies).
The reaction was performed in low-volume white 384-well plates (Corning model 4512).
The test compounds were screened in 1% DMSO (final) in the well. For 10 point titrations, 3-fold serial dilutions were conducted from the starting concentration of 50 mM.
The 2× CHUK (IKK alpha) kinase was prepared in 50 mM HEPES pH 7.5, 0.01% BRIJ-35, 10 mM MgCl2 and 1 mM EGTA. The final 10 μL kinase mixture consisted of 50-250 ng CHUK (IKK alpha) in 32.5 mM HEPES pH 7.5, 0.005% BRIJ-35, 5 mM MgCl2 and 0.5 mM EGTA. No substrate was required, as the assay measures the ability of a compound to inhibit the kinase's intrinsic ATPase activity.
5 μL of 2× Kinase mixture was incubated with 2.5 μL of ATP solution diluted to a 4×working concentration in water, in the presence of 100 nL of 100× test compound in 100% DMSO and 2.4 μL of 30 mM HEPES buffer.
After 30-second plate shake and 1-minute centrifuge at 1000×g, the resulting kinase reaction was allowed to incubate for 1 hour at room temperature before 5 μL of Detection Mix was added.
The Detection Mix, previously prepared in TR-FRET Dilution Buffer, consisted of EDTA (30 mM), Eu-anti-ADP antibody (6 nM) and an Alexa Fluor™ 647 labelled ADP tracer. The Detection Mix contained the EC60 concentration of tracer for 5-150 μM ATP.
After 30-second plate shake and 1-minute centrifuge at 1000×g, the Detection Mix was allowed to equilibrate at room temperature for 1 hour. Then the plate was read using a fluorescence plate reader configured for Adapta™ TR-FRET and the data analysed.
ADP formation was determined by calculating the emission ratio from the assay well. Therefore, the emission ratio was calculated by dividing the intensity of the tracer (acceptor) emission by the intensity of the Eu (donor) emission at 615 nm as shown in the equation below.
The IKKα and IKKb figures quoted in italicised form are from the Adapta assay described above.

For the compound `Nc1n[nH]c2c(C#CCCCN3CCOCC3)cc(-c3ccnc4[nH]ccc34)cc12` [Example 210, 7-(5-Morpholinopent-1-yn-1-yl)-5-(1H-pyrrolo[2,3-b]pyridin-4-yl)-1H-indazol-3-amine], the Ki at Recombinant IKKα came to 23 nM. On CHUK (IKK alpha), this compound came in with an IC50 of 27 nM.
`Nc1n[nH]c2c(C#CCCCN3CCCCC3)cc(-c3ccnc4[nH]ccc34)cc12` [Example 212, 7-(5-(Piperidin-1-yl)pent-1-yn-1-yl)-5-(1H-pyrrolo[2,3-b]pyridin-4-yl)-1H-indazol-3-amine]: the Ki at Recombinant IKKα came out at 30 nM. On CHUK (IKK alpha), this compound registered an IC50 of 12 nM.
For `Nc1n[nH]c2ccc(-c3ccnc4[nH]c(C5CC5)cc34)cc12` [Example 218, 5-(2-Cyclopropyl-1H-pyrrolo[2,3-b]pyridin-4-yl)-1H-indazol-3-amine], in that order: 5 nM and 1 nM.
On to `Nc1n[nH]c2ccc(-c3ccnc4[nH]c(C5CCCCC5)cc34)cc12` [Example 219, 5-(2-Cyclohexyl-1H-pyrrolo[2,3-b]pyridin-4-yl)-1H-indazol-3-amine], for which, on Recombinant IKKα, the Ki was 42 nM. The compound also registered an IC50 on CHUK (IKK alpha) of 14 nM.
Regarding `CC(C)(C)Cc1cc2c(-c3ccc4[nH]nc(N)c4c3)ccnc2[nH]1` [Example 220, 5-(2-Neopentyl-1H-pyrrolo[2,3-b]pyridin-4-yl)-1H-indazol-3-amine], the Ki on Recombinant IKKα stood at 58 nM. Inhibition against CHUK (IKK alpha) was half-maximal at 2 nM (IC50).
In the same order, the values of `Nc1n[nH]c2ccc(-c3ccnc4[nH]c(CC5CCCCC5)cc34)cc12` [Example 221, 5-(2-(Cyclohexylmethyl)-1H-pyrrolo[2,3-b]pyridin-4-yl)-1H-indazol-3-amine] are 38 nM and 8 nM.
In the same order, the values of `Nc1n[nH]c2ccc(-c3ccnc4[nH]c(CCC5CCCCC5)cc34)cc12` [Example 222, 5-(2-(2-Cyclohexylethyl)-1H-pyrrolo[2,3-b]pyridin-4-yl)-1H-indazol-3-amine] are 19 nM and 26 nM.
On to `Nc1n[nH]c2ccc(-c3ccnc4[nH]c(CO)cc34)cc12` [Example 224], for which the Ki at Recombinant IKKα amounted to 5 nM. Also, the concentration for half-maximal inhibition (IC50) against CHUK (IKK alpha) is 1 nM.
For `CC(C)(C)OCc1cc2c(-c3ccc4[nH]nc(N)c4c3)ccnc2[nH]1` [Example 227, 5-(2-(tert-Butoxymethyl)-1H-pyrrolo[2,3-b]pyridin-4-yl)-1H-indazol-3-amine], in that order: 29 nM and 2 nM.
In the same order, the values of `Nc1n[nH]c2ccc(-c3ccnc4[nH]c(C5CCOCC5)cc34)cc12` [Example 228, 5-(2-(tetrahydro-2H-pyran-4-yl)-1H-pyrrolo[2,3-b]pyridin-4-yl)-1H-indazol-3-amine] are 12 nM and 1 nM.
On to `Nc1n[nH]c2ccc(-c3ccnc4[nH]c(C5CCCCO5)cc34)cc12` (stereo not drawn) [Example 229, 5-(2-(Tetrahydro-2H-pyran-2-yl)-1H-pyrrolo[2,3-b]pyridin-4-yl)-1H-indazol-3-amine], for which the Ki on Recombinant IKKα is 27 nM. At CHUK (IKK alpha), the IC50 came to 1 nM.
For the compound `Nc1n[nH]c2ccc(-c3ccnc4[nH]c(CC5CCOCC5)cc34)cc12` [Example 230, 5-(2-((tetrahydro-2H-pyran-4-yl)methyl)-1H-pyrrolo[2,3-b]pyridin-4-yl)-1H-indazol-3-amine], on Recombinant IKKα, the Ki was found to be 11 nM. Moreover, the IC50 on CHUK (IKK alpha) was 1 nM.
`Nc1n[nH]c2ccc(-c3ccnc4[nH]c(C(=O)N5CCCC5)cc34)cc12` [Example 234, (4-(3-Amino-1H-indazol-5-yl)-1H-pyrrolo[2,3-b]pyridin-2-yl)(pyrrolidin-1-yl)methanone]: the Ki on Recombinant IKKα was 19 nM. On CHUK (IKK alpha), half-maximal inhibition (IC50) was put at 32 nM.
In the same order, the values of `Nc1n[nH]c2ccc(-c3ccnc4[nH]c(C(=O)NC5CCCCC5)cc34)cc12` [Example 236, 4-(3-Amino-1H-indazol-5-yl)-N-cyclohexyl-1H-pyrrolo[2,3-b]pyridine-2-carboxamide] are 10 nM and 2 nM.
Consider `CN1CCN(C(=O)c2cc3c(-c4ccc5[nH]nc(N)c5c4)ccnc3[nH]2)CC1` [Example 243, (4-(3-Amino-1H-indazol-5-yl)-1H-pyrrolo[2,3-b]pyridin-2-yl)(4-methylpiperazin-1-yl)methanone], for which, on Recombinant IKKα, the Ki turned out to be 72 nM. The compound also came in with an IC50 at CHUK (IKK alpha) of 13 nM.
`CC(C)(C)NCc1cc2c(-c3ccc4[nH]nc(N)c4c3)ccnc2[nH]1` [Example 248, 5-(2-((tert-Butylamino)methyl)-1H-pyrrolo[2,3-b]pyridine-4-yl)-1H-indazol-3-amine]: the Ki at Recombinant IKKα was 202 nM. This compound also yielded an IC50 against CHUK (IKK alpha) of 34 nM.
For `Nc1n[nH]c2ccc(-c3ccnc4[nH]c(C5CCCCN5)cc34)cc12` (stereo not drawn) [Example 250, 5-(2-(Piperidin-2-yl)-1H-pyrrolo[2,3-b]pyridine-4-yl)-1H-indazol-3-amine], in that order: 380 nM and 41 nM.
For `Nc1n[nH]c2ccc(-c3ccnc4[nH]c(CNC5CCCCC5)cc34)cc12` [Example 251, 5-(2-((cyclohexylamino)methyl)-1H-pyrrolo[2,3-b]339yridine-4-yl)-1H-indazol-3-amine], in that order: 74 nM and 6 nM.
Consider `CN(C)CCCNCc1cc2c(-c3ccc4[nH]nc(N)c4c3)ccnc2[nH]1` [Example 258, N^1-((4-(3-amino-1H-indazol-5-yl)-1H-pyrrolo[2,3-b]pyridin-2-yl)methyl)-N^3,N^3-dimethylpropane-1,3-diamine], for which the Ki on Recombinant IKKα turned out to be 16 nM. Further, the IC50 at CHUK (IKK alpha) came to 10 nM.
For the compound `CC(C)N(C)Cc1cc2c(-c3ccc4[nH]nc(N)c4c3)ccnc2[nH]1` [Example 259, 5-(2-((Isopropyl(methyl)amino)methyl)-1H-pyrrolo[2,3-b]pyridine-4-yl)-1H-indazol-3-amine], the Ki on Recombinant IKKα was 110 nM. The compound also displayed an IC50 at CHUK (IKK alpha) of 32 nM.
On to `Nc1n[nH]c2ccc(-c3ccnc4[nH]c(CN5CCCCC5)cc34)cc12` [Example 260, 5-(2-(Piperidin-1-ylmethyl)-1H-pyrrolo[2,3-b]pyridine-4-yl)-1H-indazol-3-amine], for which the Ki at Recombinant IKKα was determined as 91 nM. The IC50 against CHUK (IKK alpha) came to 27 nM.
In the same order, the values of `Nc1n[nH]c2ccc(-c3ccnc4[nH]c(CN5CCC(F)(F)CC5)cc34)cc12` [Example 261, 5-(2-((4,4-Difluoropiperidin-1-yl)methyl)-1H-pyrrolo[2,3-b]pyridine-4-yl)-1H-indazol-3-amine] are 49 nM and 11 nM.
For `Nc1n[nH]c2ccc(-c3ccnc4[nH]c(CN5CCOCC5)cc34)cc12` [Example 262, 5-(2-(Morpholinomethyl)-1H-pyrrolo[2,3-b]pyridine-4-yl)-1H-indazol-3-amine], in that order: 22 nM and 2 nM.
In the same order, the values of `CN1CCN(Cc2cc3c(-c4ccc5[nH]nc(N)c5c4)ccnc3[nH]2)CC1` [Example 263, 5-(2-((4-Methylpiperazin-1-yl)methyl)-1H-pyrrolo[2,3-b]pyridine-4-yl)-1H-indazol-3-amine] are 62 nM and 14 nM.

Broadly, the IC50 is the concentration at which inhibition is half-maximal. A lower IC50 goes with inhibition by little substance.
